From ChEMBL document CHEMBL5465560, “Selectivity Literature for EUbOPEN Chemogenomic Library” (2024)
Substitutions are numbered along the chain they refer to.

Key:
[1] = tested on: T1, Receptor-type tyrosine-protein kinase FLT3 (Homo sapiens), P36888 [D835H]; experiment: (§1) Selectivity interaction (KinomeScan (DiscoverX)) EUB0000045b FLT3
T1 sequence (whole entry): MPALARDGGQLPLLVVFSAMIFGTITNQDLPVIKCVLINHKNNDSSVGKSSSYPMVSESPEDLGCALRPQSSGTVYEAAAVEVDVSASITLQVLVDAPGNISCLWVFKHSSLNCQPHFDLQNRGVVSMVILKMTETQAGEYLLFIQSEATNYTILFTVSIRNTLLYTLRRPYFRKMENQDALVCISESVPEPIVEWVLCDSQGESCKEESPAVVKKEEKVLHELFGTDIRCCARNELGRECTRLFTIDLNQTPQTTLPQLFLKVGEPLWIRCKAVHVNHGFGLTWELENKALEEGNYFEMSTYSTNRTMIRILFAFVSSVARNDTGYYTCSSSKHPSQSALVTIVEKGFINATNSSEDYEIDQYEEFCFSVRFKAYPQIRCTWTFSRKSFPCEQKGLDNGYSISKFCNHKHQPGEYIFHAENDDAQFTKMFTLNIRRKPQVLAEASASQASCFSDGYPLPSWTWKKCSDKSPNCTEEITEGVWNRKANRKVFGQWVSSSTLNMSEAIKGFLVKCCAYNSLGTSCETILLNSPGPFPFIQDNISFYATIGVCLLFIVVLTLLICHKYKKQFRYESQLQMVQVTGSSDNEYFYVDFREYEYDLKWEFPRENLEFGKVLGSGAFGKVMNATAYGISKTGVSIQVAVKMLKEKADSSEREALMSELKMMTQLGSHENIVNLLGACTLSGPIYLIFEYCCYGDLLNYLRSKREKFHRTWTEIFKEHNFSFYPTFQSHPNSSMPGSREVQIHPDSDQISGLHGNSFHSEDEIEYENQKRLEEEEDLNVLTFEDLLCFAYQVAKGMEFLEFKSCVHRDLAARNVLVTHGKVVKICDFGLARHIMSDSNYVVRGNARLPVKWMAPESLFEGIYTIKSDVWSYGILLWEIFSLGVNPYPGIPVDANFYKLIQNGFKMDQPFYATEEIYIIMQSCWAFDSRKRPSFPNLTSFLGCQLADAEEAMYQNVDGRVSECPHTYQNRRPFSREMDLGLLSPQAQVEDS

[2] = tested on: T2, Receptor-type tyrosine-protein kinase FLT3 (Homo sapiens), P36888 [D835Y]; experiment: as §1
T2 sequence (whole entry): T1 sequence (whole entry) with H835Y

[3] = tested on: T3, Receptor-type tyrosine-protein kinase FLT3 (Homo sapiens), P36888 [N841I]; experiment: as §1
T3 sequence (whole entry): T1 sequence (whole entry) with H835D, N841I

## C=CC(=O)Nc1cc(-n2c(=O)ccc3cnc4ccc(-c5ccc(NS(C)(=O)=O)cc5)cc4c32)ccc1C
[1]; at 1 µM
  % of control: 89%
[1]; at 10 µM
  % of control: 100%
[2]; at 1 µM
  % of control: 100%
[2]; at 10 µM
  % of control: 100%
[3]; at 1 µM
  % of control: 85%
[3]; at 10 µM
  % of control: 86%
